In US10912741B2, “Prevention of liver cancer with safranal-based formulations” (United Arab Emirates University, priority 2019, dated 2021):

Tested on: caspase-cleaved fragment of cytokeratin18 (M30 CytoDeath)
Assay: M30 CytoDeath staining of liver sections (early apoptosis)
Assay type: in vivo, albino Wistar rats
Protocol: The experimental hepatocarcinogenesis model was developed according to a protocol by Espandiaria et al. that was adapted for our purposes. To initiate and promote hepatocarcinogenesis, diethylnitrosamine (DEN) and 2-acetylaminofluorene (2-AAF) were used, respectively. For hepatocarcinogenesis initiation in this model, a single DEN dose (200 mg/kg b.wt.) dissolved in saline was injected intraperitoneally. After initiation, all rats underwent one period of 5-days fasting, as mitotic proliferative stimuli. To promote hepatocarcinogenesis, 2-acetylaminofluorene (2-AAF) was introduced in the form of six daily intragastric doses (30 mg/kg in 1% Tween 80); two weeks after DEN treatment.
Safranal at doses of 25 mg/kg by weight (b.wt.) and 50 mg/kg b.wt, was administrated orally to rats. These doses have been reported to suppress chemically-induced oxidative damage in rats. […]
TUNEL assay was performed for the purpose of assessing apoptosis. […] DNA fragmentation, a key indicator of apoptosis, is detected using this kit. […]
For immunohistochemical staining, mounted sections were immersed in sodium citrate buffer (0.1 M, pH 6) and placed in a water bath for 15 minutes to unmask antigen epitopes. […] Ten fields were randomly selected to quantify positive cells, in individual samples (400×). […]

CC1=C(C=O)C(C)(C)CC=C1 [Safranal, 2,6,6-trimethylcyclohexa-1,3-diene-1-carbaldehyde]
number of M30 CytoDeath-positive cells (low/high doses of safranal in animals exposed to DEN, compared to group 3): significant increase in the number of both TUNEL- and M30 CytoDeath-positive cells
number of M30 CytoDeath-positive cells (safranal only (group 2), compared to control group): did not exhibit a notable change
